# From ChEMBL document CHEMBL4393734, “Structure-aided optimization of 3-O-β-chacotriosyl ursolic acid as novel H5N1 entry inhibitors with high selective index” (Bioorg Med Chem, 2019)
# Calls of active or inactive are those of the source. No cut-off for these calls is given here.
# Key:
# Influenza A virus [1] = test: Antiviral activity against influenza A virus A/Duck/Guangdong/99(H5N1) infected in MDCK cells assessed as reduction in virus induced cytopathic effect preincubated for 30 mins with virus followed by viral infection and measured after 48 hrs by microscopy analysis; assay type: functional, organism-based
# [2] = Selectivity index, ratio of CC50 for dog MDCK cells to IC50 for influenza A virus A/Duck/Guangdong/99(H5N1); assay type: toxicity; details: read-out: Ratio CC50/IC50
# [3] = Cytotoxicity against dog MDCK cells measured after 48 hrs by MTT assay; assay type: cell-based, Canis lupus familiaris
# [4] = target: Neuraminidase (Influenza A virus (A/Puerto Rico/8/1934(H1N1))) (UniProt P03468); test: Inhibition of Influenza A virus (A/Puerto Rico/8/34(H1N1) neuraminidase N1 using MUNANA as substrate preincubated for 30 mins followed by substrate addition and further incubated for 1 hr in dark by microplate reader based fluorescence assay
# Hemagglutinin = Hemagglutinin (Influenza A virus, UniProt B4URE7); test: Binding affinity to influenza A virus hemagglutin by surface plasmon resonance assay
# Influenza A virus [5] = test: Antiviral activity against influenza A virus H5N1 pseudovirus with HA (A/Thailand/Kan353/2004(H5N1) - HA/NA (A/Thailand/Kan353/2004(H5N1) -NA/HIV core plasmids infected in MDCK cells assessed as pseudovirus neutralization incubated for 30 mins with virus followed by viral infection and measured after 48 hrs by luciferase assay; assay type: functional, organism-based
# [6] = target: Hemagglutinin (Influenza A virus) (UniProt B4URE7); test: Inhibition of influenza A virus HA-mediated chicken erythrocytes hemagglutination measured after 1 hr
# Influenza A virus [7] = test: Antiviral activity against influenza A virus A/Duck/Guangdong/99(H5N1) infected in MDCK cells assessed as inhibition of viral replication measured after 48 hr post infection by FITC/DAPI-staining based immunofluorescence microscopy assay; assay type: functional, organism-based
# [8] = test system: Vesicular stomatitis virus; test: Antiviral activity against VSV-G pseudovirus infected in MDCK cells assessed as pseudovirus neutralization preincubated for 30 mins with virus and followed by viral infection and measured after 48 hrs by luciferase assay; assay type: functional, organism-based
# [9] = Binding affinity to influenza A virus hemagglutinin 1 by surface plasmon resonance assay
# Neuraminidase (Influenza A virus (A/Puerto Rico/8/1934(H1N1))), sequence (P03468 whole entry): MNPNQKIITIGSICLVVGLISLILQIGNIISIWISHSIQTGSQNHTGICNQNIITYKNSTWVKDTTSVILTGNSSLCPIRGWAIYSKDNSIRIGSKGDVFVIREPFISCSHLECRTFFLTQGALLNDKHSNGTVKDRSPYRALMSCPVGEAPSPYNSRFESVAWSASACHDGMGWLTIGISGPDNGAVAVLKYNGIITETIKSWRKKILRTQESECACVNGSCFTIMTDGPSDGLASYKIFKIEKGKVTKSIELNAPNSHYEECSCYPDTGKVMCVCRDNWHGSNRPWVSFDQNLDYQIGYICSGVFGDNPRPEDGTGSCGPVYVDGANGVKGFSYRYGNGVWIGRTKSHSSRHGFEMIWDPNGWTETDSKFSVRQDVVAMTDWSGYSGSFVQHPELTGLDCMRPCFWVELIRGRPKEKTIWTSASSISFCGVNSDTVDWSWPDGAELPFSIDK
# Hemagglutinin, sequence (B4URE7 whole entry): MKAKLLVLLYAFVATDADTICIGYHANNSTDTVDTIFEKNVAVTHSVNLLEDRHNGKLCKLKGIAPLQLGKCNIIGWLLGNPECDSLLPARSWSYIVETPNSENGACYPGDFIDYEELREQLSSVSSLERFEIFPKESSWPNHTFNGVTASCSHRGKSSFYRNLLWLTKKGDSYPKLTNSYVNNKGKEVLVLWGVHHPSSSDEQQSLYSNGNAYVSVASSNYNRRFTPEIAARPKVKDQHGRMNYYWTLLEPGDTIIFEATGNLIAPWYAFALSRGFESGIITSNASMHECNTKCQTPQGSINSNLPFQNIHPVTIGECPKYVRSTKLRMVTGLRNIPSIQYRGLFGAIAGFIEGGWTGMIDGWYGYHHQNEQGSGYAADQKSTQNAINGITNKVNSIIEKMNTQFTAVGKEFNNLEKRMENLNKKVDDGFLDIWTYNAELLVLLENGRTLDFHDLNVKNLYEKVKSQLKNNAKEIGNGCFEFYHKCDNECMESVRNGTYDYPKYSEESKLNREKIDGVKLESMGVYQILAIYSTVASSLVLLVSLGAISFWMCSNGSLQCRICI
# Hemagglutinin (Influenza A virus), sequence (B4URE7 as listed by the source): as the sequence (B4URE7 whole entry) above
Compound,IC50 (Influenza A virus [1]) [µM],selectivity ratio [2],CC50 at 48 h [3] [µM],also measured
C[C@H]1[C@H](C)CC[C@]2(C(=O)Nc3ccc(OC(F)(F)F)cc3)CC[C@]3(C)C(=CC[C@@H]4[C@@]5(C)CC[C@H](O[C@@H]6O[C@H](CO)[C@@H](O[C@@H]7O[C@@H](C)[C@H](O)[C@@H](O)[C@H]7O)[C@H](O)[C@H]6O[C@@H]6O[C@@H](C)[C@H](O)[C@@H](O)[C@H]6O)C(C)(C)[C@@H]5CC[C@]43C)[C@H]12,8.56,52.6,451,
C[C@H]1[C@H](C)CC[C@]2(C(=O)NCCN(C)C)CC[C@]3(C)C(=CC[C@@H]4[C@@]5(C)CC[C@H](O[C@@H]6O[C@H](CO)[C@@H](O[C@@H]7O[C@@H](C)[C@H](O)[C@@H](O)[C@H]7O)[C@H](O)[C@H]6O[C@@H]6O[C@@H](C)[C@H](O)[C@@H](O)[C@H]6O)C(C)(C)[C@@H]5CC[C@]43C)[C@H]12,> 50,,,
COc1cccc(NC(=O)[C@]23CC[C@@H](C)[C@H](C)[C@H]2C2=CC[C@@H]4[C@@]5(C)CC[C@H](O[C@@H]6O[C@H](CO)[C@@H](O[C@@H]7O[C@@H](C)[C@H](O)[C@@H](O)[C@H]7O)[C@H](O)[C@H]6O[C@@H]6O[C@@H](C)[C@H](O)[C@@H](O)[C@H]6O)C(C)(C)[C@@H]5CC[C@@]4(C)[C@]2(C)CC3)c1,5.92,> 113,> 1000,
C[C@H]1[C@H](C)CC[C@]2(C(=O)Nc3ccccc3Cl)CC[C@]3(C)C(=CC[C@@H]4[C@@]5(C)CC[C@H](O[C@@H]6O[C@H](CO)[C@@H](O[C@@H]7O[C@@H](C)[C@H](O)[C@@H](O)[C@H]7O)[C@H](O)[C@H]6O[C@@H]6O[C@@H](C)[C@H](O)[C@@H](O)[C@H]6O)C(C)(C)[C@@H]5CC[C@]43C)[C@H]12,2.98,103,306,
C[C@H]1[C@H](C)CC[C@]2(C(=O)NCc3ccccc3)CC[C@]3(C)C(=CC[C@@H]4[C@@]5(C)CC[C@H](O[C@@H]6O[C@H](CO)[C@@H](O[C@@H]7O[C@@H](C)[C@H](O)[C@@H](O)[C@H]7O)[C@H](O)[C@H]6O[C@@H]6O[C@@H](C)[C@H](O)[C@@H](O)[C@H]6O)C(C)(C)[C@@H]5CC[C@]43C)[C@H]12,9.35,13.2,123,
C[C@H]1[C@H](C)CC[C@]2(C(=O)Nc3cccc(Cl)c3)CC[C@]3(C)C(=CC[C@@H]4[C@@]5(C)CC[C@H](O[C@@H]6O[C@H](CO)[C@@H](O[C@@H]7O[C@@H](C)[C@H](O)[C@@H](O)[C@H]7O)[C@H](O)[C@H]6O[C@@H]6O[C@@H](C)[C@H](O)[C@@H](O)[C@H]6O)C(C)(C)[C@@H]5CC[C@]43C)[C@H]12,7.35,> 136,> 1000,
C[C@H]1[C@H](C)CC[C@]2(C(=O)O)CC[C@]3(C)C(=CC[C@@H]4[C@@]5(C)CC[C@H](O[C@@H]6O[C@H](CO)[C@@H](O[C@@H]7O[C@@H](C)[C@H](O)[C@@H](O)[C@H]7O)[C@H](O)[C@H]6O[C@@H]6O[C@@H](C)[C@H](O)[C@@H](O)[C@H]6O)C(C)(C)[C@@H]5CC[C@]43C)[C@H]12,16.4,1.5,25.3,
C[C@H]1[C@H](C)CC[C@]2(C(=O)Nc3ccc(F)cc3)CC[C@]3(C)C(=CC[C@@H]4[C@@]5(C)CC[C@H](O[C@@H]6O[C@H](CO)[C@@H](O[C@@H]7O[C@@H](C)[C@H](O)[C@@H](O)[C@H]7O)[C@H](O)[C@H]6O[C@@H]6O[C@@H](C)[C@H](O)[C@@H](O)[C@H]6O)C(C)(C)[C@@H]5CC[C@]43C)[C@H]12,5.28,> 189,> 1000,
C[C@H]1[C@H](C)CC[C@]2(C(=O)Nc3ccc(Cl)cc3)CC[C@]3(C)C(=CC[C@@H]4[C@@]5(C)CC[C@H](O[C@@H]6O[C@H](CO)[C@@H](O[C@@H]7O[C@@H](C)[C@H](O)[C@@H](O)[C@H]7O)[C@H](O)[C@H]6O[C@@H]6O[C@@H](C)[C@H](O)[C@@H](O)[C@H]6O)C(C)(C)[C@@H]5CC[C@]43C)[C@H]12,3.48,> 287,> 1000,inhibition [4]: inactive
C[C@H]1[C@H](C)CC[C@]2(C(=O)Nc3ccccc3)CC[C@]3(C)C(=CC[C@@H]4[C@@]5(C)CC[C@H](O[C@@H]6O[C@H](CO)[C@@H](O[C@@H]7O[C@@H](C)[C@H](O)[C@@H](O)[C@H]7O)[C@H](O)[C@H]6O[C@@H]6O[C@@H](C)[C@H](O)[C@@H](O)[C@H]6O)C(C)(C)[C@@H]5CC[C@]43C)[C@H]12,5.85,> 171,> 1000,
C[C@H]1[C@H](C)CC[C@]2(C(=O)Nc3ccc(Br)cc3)CC[C@]3(C)C(=CC[C@@H]4[C@@]5(C)CC[C@H](O[C@@H]6O[C@H](CO)[C@@H](O[C@@H]7O[C@@H](C)[C@H](O)[C@@H](O)[C@H]7O)[C@H](O)[C@H]6O[C@@H]6O[C@@H](C)[C@H](O)[C@@H](O)[C@H]6O)C(C)(C)[C@@H]5CC[C@]43C)[C@H]12,> 50,,,
COc1ccccc1NC(=O)[C@]12CC[C@@H](C)[C@H](C)[C@H]1C1=CC[C@@H]3[C@@]4(C)CC[C@H](O[C@@H]5O[C@H](CO)[C@@H](O[C@@H]6O[C@@H](C)[C@H](O)[C@@H](O)[C@H]6O)[C@H](O)[C@H]5O[C@@H]5O[C@@H](C)[C@H](O)[C@@H](O)[C@H]5O)C(C)(C)[C@@H]4CC[C@@]3(C)[C@]1(C)CC2,1.05,> 952,> 1000,Kd (Hemagglutinin): 0.00122 µM; IC50 (Influenza A virus [5]): 1.28 µM; inhibition [6]: Dose-dependent effect; Activity (Influenza A virus [7]): Dose-dependent effect; inhibition [4]: inactive; inhibition [8]: inactive; Kd [9]: 0.44 µM
COc1ccc(NC(=O)[C@]23CC[C@@H](C)[C@H](C)[C@H]2C2=CC[C@@H]4[C@@]5(C)CC[C@H](O[C@@H]6O[C@H](CO)[C@@H](O[C@@H]7O[C@@H](C)[C@H](O)[C@@H](O)[C@H]7O)[C@H](O)[C@H]6O[C@@H]6O[C@@H](C)[C@H](O)[C@@H](O)[C@H]6O)C(C)(C)[C@@H]5CC[C@@]4(C)[C@]2(C)CC3)cc1,2.12,> 472,> 1000,inhibition [4]: inactive
C[C@H]1[C@H](C)CC[C@]2(C(=O)N3CCCC3)CC[C@]3(C)C(=CC[C@@H]4[C@@]5(C)CC[C@H](O[C@@H]6O[C@H](CO)[C@@H](O[C@@H]7O[C@@H](C)[C@H](O)[C@@H](O)[C@H]7O)[C@H](O)[C@H]6O[C@@H]6O[C@@H](C)[C@H](O)[C@@H](O)[C@H]6O)C(C)(C)[C@@H]5CC[C@]43C)[C@H]12,3.25,13,42.4,
CNC(=O)[C@]12CC[C@@H](C)[C@H](C)[C@H]1C1=CC[C@@H]3[C@@]4(C)CC[C@H](O[C@@H]5O[C@H](CO)[C@@H](O[C@@H]6O[C@@H](C)[C@H](O)[C@@H](O)[C@H]6O)[C@H](O)[C@H]5O[C@@H]5O[C@@H](C)[C@H](O)[C@@H](O)[C@H]5O)C(C)(C)[C@@H]4CC[C@@]3(C)[C@]1(C)CC2,11.2,60.7,683,
COc1ccc(CNC(=O)[C@]23CC[C@@H](C)[C@H](C)[C@H]2C2=CC[C@@H]4[C@@]5(C)CC[C@H](O[C@@H]6O[C@H](CO)[C@@H](O[C@@H]7O[C@@H](C)[C@H](O)[C@@H](O)[C@H]7O)[C@H](O)[C@H]6O[C@@H]6O[C@@H](C)[C@H](O)[C@@H](O)[C@H]6O)C(C)(C)[C@@H]5CC[C@@]4(C)[C@]2(C)CC3)cc1,8.72,11.5,100,
